We go through 41 molecules from PubChem BioAssay AID977624 (Broad Institute, 2014).

Experiment in all cases: wild-type E. coli growth inhibition versus h34 humanized strain – h34 mutant RFP, wild-type GFP, cherry-pick, dose response (AID 977624)
In assay [1] the test system is E. coli wild-type GFP strain growth, fluorescence, 24 h.
Assay [2] deals with E. coli h34 humanized ribosome mutant RFP strain growth, fluorescence, 24 h.
The subject of assay [3] is E. coli mixed culture (wild-type GFP + h34 RFP) total growth, OD600, 24 h. The conditions noted are these: E. coli mixed culture (wild-type GFP + h34 RFP), 24 h.
Setting [4] is: measured here: total OD600 growth.

Records with an inconclusive call do not appear. Calls of active or inactive are those of the source.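 Rule for the calls: active = compound lowering the normal-ribosome reporter at least twice as much as the humanized-ribosome reporter, growth loss under a set limit; inconclusive = no clear call, values can overlap the other calls; inactive = the rest.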

Turning to `Cc1ccc(NS(=O)(=O)c2cc(C(=O)N3CCc4ccccc4C3)ccc2Cl)cc1`, the AC50 in assay [1] was > 100 µM (inactive); in assay [2], 32.6 µM.

The molecule `O=C(Nc1ccccc1N1CCOCC1)C1CCCCN1S(=O)(=O)c1ccccc1` (configuration not stated) gave an AC50 in assay [2] greater than 100 µM. In assay [2], `Cc1noc(C)c1S(=O)(=O)N(Cc1ccccc1)C(C)C` yielded an AC50 greater than 100 µM. Same read-out and setting: the value for `Cc1cccc(N2CCN(Cc3nc(-c4ccc(F)cc4F)oc3C)CC2)n1` was 3.83 µM. As for `O=C(Nc1ccccc1Cl)c1ccc2c(c1)N(Cc1ccc(F)cc1)C(=O)CS2=O` (configuration not stated), the AC50 in assay [1] is > 100 µM (inactive); in assay [2], 50 µM. In assay [2], `Cc1ccccc1NS(=O)(=O)c1cc(C(=O)NCCC2=CCCCC2)ccc1C` displayed an AC50 greater than 100 µM. `O=S(=O)(NCC1CCCO1)c1ccc(-c2ccc(Cl)cc2)cc1` (configuration not stated) returned an AC50 in assay [2] of 31.8 µM.

`CCCC(=O)Nc1sc2c(c1C(=O)Nc1ccccn1)CCCC2` came in with an AC50 in assay [2] greater than 100 µM. For `CC(NCc1ccc(S(N)(=O)=O)cc1)C(=O)Nc1cc([N+](=O)[O-])ccc1Cl` (configuration not stated), the AC50 in assay [1] was > 100 µM (inactive); in assay [2], greater than 100 µM.

In turn, `O=C(Nc1ccncc1)c1ccc(S(=O)(=O)Nc2ccccc2)cc1` had an AC50 in assay [2] of 46.5 µM. For the molecule `CCOc1ccc(OCCn2c(=S)[nH]c3c(N)ncnc32)cc1`, the figures for the AC50 in assay [1] and in assay [2] were > 100 µM (inactive) and 17.3 µM, respectively. On the same counts, the results for `O=C(Nc1cccc(Cl)c1)c1ccc(S(=O)(=O)NCC2CCCO2)cc1` (configuration not stated) are > 100 µM (inactive) and 1.4 µM. On the same counts, the results for `CCc1cc2c(=O)n(Cc3ccccc3)c(SC3CCOC3=O)nc2s1` (configuration not stated) are > 100 µM (inactive) and 46.4 µM. `CC(C)n1nnnc1C1c2ccccc2C(=O)N1CCOc1ccccc1` (configuration not stated) displayed an AC50 in assay [2] of 5.87 µM. The same measure, in the same setting: the value for `COc1cccc(NC(=O)CSc2nc3c(sc4ccccc43)c(=O)n2CCN(C)C)c1` was greater than 100 µM; that for `CC(=O)c1c(N2CCOCC2)nc2ccc(Cl)cc2c1-c1ccccc1` was greater than 100 µM.

With `CC(C)Cn1c(=O)c2ccccc2c2ccccc2c1=O`, the AC50 in assay [1] was > 100 µM (inactive); in assay [2], 7.44 µM. Consider `CCn1c(NC(=O)c2nn(C)cc2Br)nc2ccccc21`, for which the AC50 in assay [1] was > 100 µM (inactive); in assay [2], 45.6 µM; in assay [3] (setting [4]), 50.3 µM. Molecule `COCC#Cc1ccc2c(c1)O[C@H](CN(C)C(=O)c1ccccc1)[C@@H](C)CN([C@H](C)CO)S2(=O)=O` yielded a half-maximal activity concentration (AC50) in assay [2] greater than 100 µM. Regarding `COc1ccc(NC(=O)c2cccs2)cc1C(=O)N1CCN(c2ccccc2)CC1`, in assay [2], the concentration at half-maximal activity (AC50) is greater than 100 µM. Consider `CCOc1ccccc1NC(=O)c1ccc2ccccc2c1`, for which the half-maximal activity concentration (AC50) was greater than 100 µM in assay [1] (measured here: GFP wild-type, test 1); greater than 100 µM in assay [2] (E. coli wild-type GFP strain growth, fluorescence, 24 h, measured here: RFP h34 mutant, test 1); 38.3 µM in assay [3] (measured here: OD600, test 1). On to `Cc1nnc2sc(SCC(=O)Nc3ccc(Br)cc3)nn2c1=O`, for which the AC50 in assay [1] is > 100 µM (inactive); in assay [2], greater than 100 µM. On the same counts, the results for `CCOc1ccccc1N(CC(=O)Nc1ccccc1F)S(=O)(=O)c1ccccc1` are > 100 µM (inactive) and 52.1 µM. The molecule `O=C(c1ccc(N2CCCCC2)c([N+](=O)[O-])c1)N1CCN(c2ccccn2)CC1` returned an AC50 in assay [2] greater than 100 µM. Consider `CC(C)(C)c1ccc(-c2noc(CCC(=O)NCc3ccco3)n2)cc1`, for which, in assay [2], the AC50 amounted to 2.76 µM.

Take `O=C(Nc1ccccc1N1CCN(C(=O)c2ccccc2)CC1)c1ccc([N+](=O)[O-])o1`: the AC50 in assay [1] was > 100 µM (inactive); in assay [2] it was 1.97 µM. As to `N#Cc1cccc(-c2ccc3c(c2)[C@H]2[C@H](CCN2C(=O)c2ccccc2F)[C@H](CO)N3)c1`, the AC50 in assay [1] is > 100 µM (inactive); in assay [3] (setting [4]) it was greater than 100 µM. For the molecule `CCC1=Nc2cc(C(=O)NCc3cccnc3)ccc2Sc2ccc(C)cc21`, the AC50 was > 100 µM (inactive) in assay [1] and 32.6 µM in assay [2]. Consider `CCc1ccc(C(=O)Nc2cccnc2Oc2ccc(Cl)cc2)cc1`, for which the figures for the AC50 in assay [1] and in assay [3] (setting [4]) were > 100 µM (inactive) and greater than 100 µM, respectively. Regarding `C=CCN(c1ccccc1)S(=O)(=O)c1cccc2cccnc12`, the half-maximal activity concentration (AC50) in assay [2] came out at 4.71 µM. In the case of `COc1ccc(OC2C(=O)N(Cc3ccc4c(c3)OCO4)C2c2cccs2)cc1` (configuration not stated), the AC50 is > 100 µM (inactive) in assay [1] and greater than 100 µM in assay [3] (setting [4]). In the case of `COc1cccc(N2CCN(c3ccc(S(=O)(=O)N4CCN(C)CC4)cc3[N+](=O)[O-])CC2)c1`, the AC50 was > 100 µM (inactive) in assay [1] and greater than 100 µM in assay [3] (setting [4]). Consider `O=c1[nH]c(C2CCN(S(=O)(=O)c3ccc4c(c3)OCCO4)CC2)nc2c1nnn2Cc1ccccc1F`, for which the AC50 in assay [1] was > 100 µM (inactive); in assay [3] (setting [4]), greater than 100 µM. Turning to `COc1cc(OC)nc(Oc2ccccc2C(=O)Oc2ccc(C)cc2)n1`, the AC50 in assay [1] was > 100 µM (inactive); in assay [2] it was 45.6 µM. On the same counts, the results for `COc1cc(NC(=O)C(c2ccccc2)c2ccccc2)c(C(=O)O)cc1OC` are > 100 µM (inactive) and 36.4 µM.

Turning to `O=C(Nc1ccc(F)cc1)N1CCCCN2[C@@H](CO)[C@H](c3ccc(-c4ccncc4)cc3)[C@@H]2C1`, the AC50 in assay [1] was > 100 µM (inactive); in assay [3] (setting [4]), greater than 100 µM. In assay [2], `COC(=O)c1cc(S(=O)(=O)NCc2ccc3c(c2)OCO3)cn1C` had an AC50 of 52.4 µM. `CN1CCN(C(=O)C[C@@H]2CC[C@@H]3[C@H](COC[C@H](O)CN3C(=O)Nc3ccc(Cl)cc3)O2)CC1`: the AC50 in assay [1] is > 100 µM (inactive); in assay [3] (setting [4]) it was greater than 100 µM. `CS(=O)(=O)Nc1ccccc1C(=O)NCCSc1ccccc1` had an AC50 in assay [2] of 51.2 µM. Regarding `O=S(=O)(c1ccccc1)N1CC[C@@H]2[C@H](CO)Nc3ccc(Br)cc3[C@@H]21`, the AC50 in assay [1] is > 100 µM (inactive); in assay [3] (setting [4]), greater than 100 µM. On the same counts, the results for `O=C(CSc1ccccc1)Nc1cccc(NC(=O)c2ccco2)c1` are > 100 µM (inactive) and greater than 100 µM.

As a reminder, the AC50 is the concentration giving half of the maximal activity seen.
